Laboratory results as given in ChEMBL document CHEMBL3639262, “Diazabenzo[de] anthracen-3-one compounds and methods for inhibiting PARP” (2013).

Target: Poly [ADP-ribose] polymerase 1 (Homo sapiens, UniProt P09874)
Experiment: PARP Enzyme Assay: The PARP enzyme assay is set up on ice in a volume of 100 microliters consisting of 100 mM Tris-HCl (pH 8.0), 1 mM MgCl2, 28 mM KCl, 28 mM NaCl, 0.1 mg/ml of DNase I activated herring sperm DNA (Sigma, Mo.), 3.0 micromolar [3H]nicotinamide adenine dinucleotide (470 mci/mmole), 7 micrograms/ml PARP enzyme, and various concentrations of the compounds to be tested. The reaction is initiated by incubating the mixture at 25° C. After 15 minutes of incubation, the reaction is terminated by adding 500 microliters of ice cold 20% (w/v) trichloroacetic acid. The precipitate formed is transferred onto a glass fiber filter (Packard Unifilter-GF/B) and washed three times with ethanol. After the filter is dried, the radioactivity is determined by scintillation counting.

Poly [ADP-ribose] polymerase 1, sequence (P09874 whole entry): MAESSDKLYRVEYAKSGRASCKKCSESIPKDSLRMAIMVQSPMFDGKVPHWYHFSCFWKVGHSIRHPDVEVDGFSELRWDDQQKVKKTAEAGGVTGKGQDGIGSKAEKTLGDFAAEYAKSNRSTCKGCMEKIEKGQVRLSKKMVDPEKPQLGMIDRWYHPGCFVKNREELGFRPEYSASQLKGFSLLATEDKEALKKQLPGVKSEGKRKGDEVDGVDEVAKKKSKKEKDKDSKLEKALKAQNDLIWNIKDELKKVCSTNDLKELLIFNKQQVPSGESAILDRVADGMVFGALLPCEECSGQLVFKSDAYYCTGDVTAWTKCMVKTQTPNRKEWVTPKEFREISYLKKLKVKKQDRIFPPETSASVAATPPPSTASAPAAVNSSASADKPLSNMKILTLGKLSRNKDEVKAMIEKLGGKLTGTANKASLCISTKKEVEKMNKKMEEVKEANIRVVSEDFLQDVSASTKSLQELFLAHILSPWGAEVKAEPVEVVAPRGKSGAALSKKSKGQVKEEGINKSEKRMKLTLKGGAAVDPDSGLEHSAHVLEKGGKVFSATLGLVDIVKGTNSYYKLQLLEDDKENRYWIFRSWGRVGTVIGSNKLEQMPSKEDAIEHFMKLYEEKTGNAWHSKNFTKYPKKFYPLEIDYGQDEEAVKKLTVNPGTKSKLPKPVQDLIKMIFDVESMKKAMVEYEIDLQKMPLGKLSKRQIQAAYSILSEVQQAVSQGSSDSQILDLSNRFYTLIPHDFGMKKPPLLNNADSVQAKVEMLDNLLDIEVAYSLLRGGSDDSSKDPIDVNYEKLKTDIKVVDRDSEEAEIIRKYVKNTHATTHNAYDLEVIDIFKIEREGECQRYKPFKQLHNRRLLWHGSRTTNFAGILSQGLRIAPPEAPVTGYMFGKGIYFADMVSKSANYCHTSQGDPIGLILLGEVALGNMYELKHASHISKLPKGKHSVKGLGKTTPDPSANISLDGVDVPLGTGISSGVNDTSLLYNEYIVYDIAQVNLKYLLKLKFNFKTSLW

SMILES: CCN(CC)CCN(CC)Cc1ccc2c(c1)-c1n[nH]c(=O)c3cccc(c13)O2
- IC50: 500 nM
